# Assay results published in PubChem BioAssay (NCI).
#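 Abbreviation: GI50, concentration required for 50% inhibition of growth. TGI denotes the concentration required for complete inhibition of growth.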
# How the values were obtained:
# Assay in all cases: NCI anticancer screen, dose series, 384-well format
# MDA-MB-468 breast = test system: MDA-MB-468 breast
# HS 578T breast = test system: HS 578T breast
# K-562 leukemia = test system: K-562 leukemia
# RPMI-8226 leukemia = test system: RPMI-8226 leukemia
# NCI-H460 NSCLC = test system: NCI-H460 NSCLC
# M14 melanoma = test system: M14 melanoma
# OVCAR-8 ovarian = test system: OVCAR-8 ovarian
# SF-539 CNS = test system: SF-539 CNS
# HCT-116 colon = test system: HCT-116 colon
# HCT-15 colon = test system: HCT-15 colon
# LOX IMVI melanoma = test system: LOX IMVI melanoma
# OVCAR-5 ovarian = test system: OVCAR-5 ovarian
# SK-OV-3 ovarian = test system: SK-OV-3 ovarian
# CCRF-CEM leukemia = test system: CCRF-CEM leukemia
# SK-MEL-28 melanoma = test system: SK-MEL-28 melanoma
# U251 glioblastoma = test system: U251 glioblastoma
# DU-145 prostate = test system: DU-145 prostate
# NCI-H522 lung = test system: NCI-H522 lung
# MALME-3M melanoma = test system: MALME-3M melanoma
# UACC-62 melanoma = test system: UACC-62 melanoma
# MDA-MB-435 melanoma = test system: MDA-MB-435 melanoma
# RXF 393 renal = test system: RXF 393 renal
# MDA-MB-231 breast = test system: MDA-MB-231 breast
# EKVX NSCLC = test system: EKVX NSCLC
# SNB-75 CNS = test system: SNB-75 CNS
# HT29 colon = test system: HT29 colon
# SF-268 CNS = test system: SF-268 CNS
# 786-0 renal = test system: 786-0 renal
# SN12C renal = test system: SN12C renal
# NCI-H226 lung = test system: NCI-H226 lung
# SF-295 CNS = test system: SF-295 CNS
# UO-31 renal = test system: UO-31 renal
# HL-60(TB) leukemia = test system: HL-60(TB) leukemia
# SR leukemia = test system: SR leukemia
# UACC-257 melanoma = test system: UACC-257 melanoma
# NCI-H322M lung = test system: NCI-H322M lung
# SK-MEL-2 melanoma = test system: SK-MEL-2 melanoma
# ACHN renal = test system: ACHN renal
# COLO 205 colon = test system: COLO 205 colon
# SW-620 colon = test system: SW-620 colon
# BT-549 breast = test system: BT-549 breast
# MOLT-4 leukemia = test system: MOLT-4 leukemia
# KM12 colon = test system: KM12 colon
# CAKI-1 renal = test system: CAKI-1 renal
# SNB-19 CNS = test system: SNB-19 CNS
# IGROV1 ovarian = test system: IGROV1 ovarian
# OVCAR-3 ovarian = test system: OVCAR-3 ovarian
# PC-3 prostate = test system: PC-3 prostate
# A549 NSCLC = test system: A549 NSCLC
# OVCAR-4 ovarian = test system: OVCAR-4 ovarian
# T-47D breast = test system: T-47D breast
# MCF7 breast = test system: MCF7 breast
# A498 renal = test system: A498 renal
# TK-10 renal = test system: TK-10 renal
# HOP-62 NSCLC = test system: HOP-62 NSCLC
# HOP-92 NSCLC = test system: HOP-92 NSCLC
smiles,measurement,setting,value
CC1(C)CCC(CN2CCN(c3ccc(C(=O)NS(=O)(=O)c4ccc(NCC5CCOCC5)c([N+](=O)[O-])c4)c(Oc4cnc5[nH]ccc5c4)c3)CC2)=C(c2ccc(Cl)cc2)C1,GI50,MDA-MB-468 breast,3.67 µM
same,TGI,MDA-MB-468 breast,7.05 µM
same,GI50,HS 578T breast,3.14 µM
same,TGI,HS 578T breast,7.93 µM
same,GI50,K-562 leukemia,2.13 µM
same,TGI,K-562 leukemia,4.28 µM
same,GI50,RPMI-8226 leukemia,1.75 µM
same,TGI,RPMI-8226 leukemia,3.99 µM
same,GI50,NCI-H460 NSCLC,4.46 µM
same,TGI,NCI-H460 NSCLC,7.85 µM
same,GI50,M14 melanoma,3.51 µM
same,TGI,M14 melanoma,9.14 µM
same,GI50,OVCAR-8 ovarian,4.44 µM
same,TGI,OVCAR-8 ovarian,7.43 µM
same,GI50,SF-539 CNS,3.6 µM
same,TGI,SF-539 CNS,7.94 µM
same,GI50,HCT-116 colon,4.46 µM
same,TGI,HCT-116 colon,11.8 µM
same,GI50,HCT-15 colon,5.11 µM
same,TGI,HCT-15 colon,9.19 µM
same,GI50,LOX IMVI melanoma,9.62 µM
same,GI50,OVCAR-5 ovarian,3.53 µM
same,TGI,OVCAR-5 ovarian,6.62 µM
same,GI50,SK-OV-3 ovarian,15.5 µM
same,TGI,SK-OV-3 ovarian,21.1 µM
same,GI50,CCRF-CEM leukemia,7.94 µM
same,GI50,SK-MEL-28 melanoma,4.05 µM
same,TGI,SK-MEL-28 melanoma,9.58 µM
same,GI50,U251 glioblastoma,5.89 µM
same,TGI,U251 glioblastoma,9.82 µM
same,GI50,DU-145 prostate,5.66 µM
same,TGI,DU-145 prostate,18.5 µM
same,GI50,NCI-H522 lung,14.9 µM
same,TGI,NCI-H522 lung,20.2 µM
same,GI50,MALME-3M melanoma,2.81 µM
same,TGI,MALME-3M melanoma,6.5 µM
same,GI50,UACC-62 melanoma,4.95 µM
same,TGI,UACC-62 melanoma,7.13 µM
same,GI50,MDA-MB-435 melanoma,3.43 µM
same,TGI,MDA-MB-435 melanoma,16.6 µM
same,GI50,RXF 393 renal,3.41 µM
same,TGI,RXF 393 renal,5.69 µM
same,GI50,MDA-MB-231 breast,2.49 µM
same,TGI,MDA-MB-231 breast,6.01 µM
same,GI50,EKVX NSCLC,6.98 µM
same,TGI,EKVX NSCLC,14.3 µM
same,GI50,SNB-75 CNS,4.58 µM
same,TGI,SNB-75 CNS,9.27 µM
same,GI50,HT29 colon,5.16 µM
same,TGI,HT29 colon,7.3 µM
same,GI50,SF-268 CNS,3.84 µM
same,TGI,SF-268 CNS,8.19 µM
same,GI50,786-0 renal,3.15 µM
same,TGI,786-0 renal,9.12 µM
same,GI50,SN12C renal,4.52 µM
same,TGI,SN12C renal,14.9 µM
same,GI50,NCI-H226 lung,7.08 µM
same,TGI,NCI-H226 lung,10.6 µM
same,GI50,SF-295 CNS,3.98 µM
same,TGI,SF-295 CNS,7.88 µM
same,GI50,UO-31 renal,3.63 µM
same,TGI,UO-31 renal,8 µM
same,GI50,HL-60(TB) leukemia,0.105 µM
same,TGI,HL-60(TB) leukemia,0.802 µM
same,GI50,SR leukemia,1.38 µM
same,TGI,SR leukemia,2.68 µM
same,GI50,UACC-257 melanoma,5.19 µM
same,TGI,UACC-257 melanoma,7 µM
same,GI50,NCI-H322M lung,4.57 µM
same,TGI,NCI-H322M lung,11.5 µM
same,GI50,SK-MEL-2 melanoma,1.93 µM
same,TGI,SK-MEL-2 melanoma,3.43 µM
same,GI50,ACHN renal,4.22 µM
same,TGI,ACHN renal,11.6 µM
same,GI50,COLO 205 colon,3.81 µM
same,TGI,COLO 205 colon,6.68 µM
same,GI50,SW-620 colon,6.09 µM
same,TGI,SW-620 colon,7.57 µM
same,GI50,BT-549 breast,3.79 µM
same,TGI,BT-549 breast,9.18 µM
same,GI50,MOLT-4 leukemia,1.26 µM
same,TGI,MOLT-4 leukemia,2.62 µM
same,GI50,KM12 colon,5.75 µM
same,TGI,KM12 colon,8.84 µM
same,GI50,CAKI-1 renal,5.47 µM
same,TGI,CAKI-1 renal,11.7 µM
same,GI50,SNB-19 CNS,5.63 µM
same,TGI,SNB-19 CNS,11 µM
same,GI50,IGROV1 ovarian,2.81 µM
same,TGI,IGROV1 ovarian,7.24 µM
same,GI50,OVCAR-3 ovarian,4.55 µM
same,TGI,OVCAR-3 ovarian,7.36 µM
same,GI50,PC-3 prostate,4.61 µM
same,TGI,PC-3 prostate,12.2 µM
same,GI50,A549 NSCLC,4.97 µM
same,TGI,A549 NSCLC,11.2 µM
same,GI50,OVCAR-4 ovarian,2.98 µM
same,TGI,OVCAR-4 ovarian,6.29 µM
same,GI50,T-47D breast,5.12 µM
same,TGI,T-47D breast,8.12 µM
same,GI50,MCF7 breast,4.38 µM
same,TGI,MCF7 breast,8.24 µM
same,GI50,A498 renal,3.64 µM
same,TGI,A498 renal,8.99 µM
same,GI50,TK-10 renal,6.84 µM
same,TGI,TK-10 renal,12.4 µM
same,GI50,HOP-62 NSCLC,6.2 µM
same,TGI,HOP-62 NSCLC,9.88 µM
same,GI50,HOP-92 NSCLC,1.83 µM
same,TGI,HOP-92 NSCLC,3.73 µM
